{"source": "patent US5929070A", "about": "(Eli Lilly and Company, priority 1997, dated 1999)", "key": {"[1]": {"test_system": "migraine pain", "assay": "Utility tests for migraine analgesic activity (mouse writhing, acetic acid-induced writhing, protein extravasation and related tests)", "assay_type": "in vivo, mice; rats; guinea pigs; rabbits", "conditions": "summary statement for the utility tests, no values given"}, "[2]": {"test_system": "muscarinic cholinergic receptor", "assay": "pharmacological studies, muscarinic cholinergic receptor activity"}, "[3]": {"test_system": "5-HT1C receptor", "assay": "pharmacological studies, 5-HT1C receptor activity"}}, "data": [{"smiles": "Cc1cc2c(s1)Nc1ccccc1N=C2N1CCN(C)CC1", "note": "[olanzapine, 2-methyl-4-(4-methyl-1-piperazinyl)-10H-thieno[2,3-b][1,5]benzodiazepine]", "values": [{"measurement": "migraine pain analgesic effect", "setting": "[1]", "value": "can provide a significant migraine pain analgesic effect"}, {"measurement": "muscarinic cholinergic receptor activity", "setting": "[2]", "value": "has muscarinic cholinergic receptor activity"}, {"measurement": "activity at the 5-HT1C receptor", "setting": "[3]", "value": "active"}]}]}
